Measured values taken from article PMC8989888, “Development of optimized drug-like small molecule inhibitors of the SARS-CoV-2 3CL protease for treatment of COVID-19” (Nature Communications, 2022).
Values joined by “and” are separate entries in the source; they are usually repeats but may differ in a detail not shown here. Equal values may be shown once.

Tests used:
SARS-CoV-2 3CL protease [1] = biological target: T1, SARS-CoV-2 3CL protease (Severe acute respiratory syndrome coronavirus 2, UniProt P0DTD1); assay: cell-based
SARS-CoV-2 3CL protease [2] = biological target: T1, SARS-CoV-2 3CL protease; assay: biochemical; conditions: for Normalized SARS-CoV-2 3CL protease activity: 0.2 µM protease with 50 µM tested compound; for Normalized SARS-CoV-2 3CL protease activity / % SARS-CoV-2 3CL activity: replicates; for % SARS-CoV-2 3CL activity / IC50: 20 nM protease; for IC50: read-out: SARS-CoV-2 3CLpro IC50

Structure (SMILES) | Absorbance (crystal violet), SARS-CoV-2 3CLpro (SARS-CoV-2 3CL protease [1]) | Normalized SARS-CoV-2 3CL protease activity (SARS-CoV-2 3CL protease [2]) | % SARS-CoV-2 3CL activity (SARS-CoV-2 3CL protease [2]; log10[nM] 0.19382) | % SARS-CoV-2 3CL activity (SARS-CoV-2 3CL protease [2]; log10[nM] 0.49485) | % SARS-CoV-2 3CL activity (SARS-CoV-2 3CL protease [2]; log10[nM] 0.79588) | % SARS-CoV-2 3CL activity (SARS-CoV-2 3CL protease [2]; log10[nM] 1.09691) | % SARS-CoV-2 3CL activity (SARS-CoV-2 3CL protease [2]; log10[nM] 1.39794) | % SARS-CoV-2 3CL activity (SARS-CoV-2 3CL protease [2]; log10[nM] 1.69897) | % SARS-CoV-2 3CL activity (SARS-CoV-2 3CL protease [2]; log10[nM] 2) | % SARS-CoV-2 3CL activity (SARS-CoV-2 3CL protease [2]; log10[nM] 2.30103) | % SARS-CoV-2 3CL activity (SARS-CoV-2 3CL protease [2]; log10[nM] 2.60206) | % SARS-CoV-2 3CL activity (SARS-CoV-2 3CL protease [2]; log10[nM] 2.90309) [%] | % SARS-CoV-2 3CL activity (SARS-CoV-2 3CL protease [2]; log10[nM] -0.10721) | % SARS-CoV-2 3CL activity (SARS-CoV-2 3CL protease [2]; log10[nM] -0.40824) [%] | IC50 (SARS-CoV-2 3CL protease [2]) [nM]
CC(=O)Nc1ccc(C(=O)Oc2cncc(Cl)c2)cc1 [Z32] | 0.1483 and 0.1499 | 0.07213 and 0.1423 and 0.1862 |  |  |  |  |  |  |  |  |  |  |  |  | 
Cc1ncc(C(=O)Oc2cncc(Br)c2)s1 [Z43] | 0.1361 and 0.1268 | 0.007869 and 0.001311 and 0.005246 | 81.5961% and 71.2676% | 59.9348% and 65.0704% | 59.9348% and 45.6338% | 45.6026% and 45.2113% | 33.0619% and 25.9155% | 9.772% and 20% | -2.443% and 0.9859% | -12.7036% and 7.042% | -11.2378% and 5.775% | 0 | 77.6873% and 77.6056% | 100 | 14
N#CCc1cccc(C(=O)Oc2cncc(Cl)c2)c1 [Z50] | 0.1475 and 0.1394 | 0.05574 and 0.08721 and 0.4348 |  |  |  |  |  |  |  |  |  |  |  |  | 
O=C(Oc1cncc(Br)c1)c1cc2c([nH]c1=O)CCCC2 [Z61] | 0.1155 and 0.1264 | 0.4525 and 0.1738 and 0.3423 |  |  |  |  |  |  |  |  |  |  |  |  | 
CCn1nc(C)c(C(=O)Oc2cncc(Cl)c2)c1Cl [Z65] | 0.1475 and 0.1384 | 0.223 and 0.2216 and 0.2302 |  |  |  |  |  |  |  |  |  |  |  |  | 
Cc1ncsc1C(=O)Oc1cncc(Cl)c1 [Z91] | 0.1428 and 0.134 | 0.02131 and 0.02295 and 0.01967 | 84.3886% and 89.3518% | 71.2882% and 83.5648% | 67.1397% and 68.9815% | 60.4804% and 65.625% | 57.3144% and 59.9537% | 31.5502% and 53.125% | 18.6681% and 32.7546% | 6.9869% and 23.0324% | 2.62% and 4.745% | 0 | 87.0087% and 88.8889% | 100 | 31
CN(C)S(=O)(=O)c1ccc(C(=O)Oc2cc(Cl)c[nH]c2=O)cc1 [Z97] | 0.1516 and 0.1477 | 0.9508 and 0.9056 and 0.9639 |  |  |  |  |  |  |  |  |  |  |  |  | 
